Measurements taken from PubChem BioAssay AID1845201 (Molecular Pharmacology Branch, DTP, NCI, 2023).

Test system: COR L88 complex tumor spheroid viability
Assay: Anticancer human tumor COR L88 cell line growth inhibition;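 further: compound exposure lasted 7 days before viability readout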;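 on viability, T/C: percent of DMSO vehicle-treated spheroids = 100%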
Conditions: for IC50: curve of first compound; for viability, T/C: stronger effect = lower value
Procedure, shortened: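 Complex spheroids of malignant cells with endothelial cells and mesenchymal stem cells; agents alone or combined, from near clinical Cmax (or 10 microM if unknown) down in half-log steps, 0.25% DMSO final.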

## [2H]c1nc(C)nc([2H])c1-c1cc(NC[C@@H](C)c2cccc3c(C(=O)NC)ccnc23)ncn1 + COc1cc2c(cc1O)CCNC21CSC2c3c(OC(C)=O)c(C)c4c(c3C(COC1=O)N1C(O)C3Cc5cc(C)c(OC)c(O)c5C(C21)N3C)OCO4
Second compound 30 pM
  IC50: > 10 µM
Second compound 94.9 pM
  IC50: > 10 µM
Second compound 0.0003 µM
  IC50: > 10 µM
Second compound 0.000949 µM
  IC50: 4.45 µM
Second compound 0.003 µM
  IC50: < 0.0316 µM
Second compound 30 pM, first compound 0.0316 µM
  viability, T/C: 98.3%
Second compound 30 pM, first compound 0.1 µM
  viability, T/C: 98.8%
Second compound 30 pM, first compound 0.316 µM
  viability, T/C: 96.3%
Second compound 30 pM, first compound 1 µM
  viability, T/C: 105%
Second compound 30 pM, first compound 3.16 µM
  viability, T/C: 102%
Second compound 30 pM, first compound 10 µM
  viability, T/C: 98.3%
Second compound 94.9 pM, first compound 0.0316 µM
  viability, T/C: 102%
Second compound 94.9 pM, first compound 0.1 µM
  viability, T/C: 100%
Second compound 94.9 pM, first compound 0.316 µM
  viability, T/C: 110%
Second compound 94.9 pM, first compound 1 µM
  viability, T/C: 101%
Second compound 94.9 pM, first compound 3.16 µM
  viability, T/C: 94.6%
Second compound 94.9 pM, first compound 10 µM
  viability, T/C: 88%
Second compound 0.0003 µM, first compound 0.0316 µM
  viability, T/C: 72.8%
Second compound 0.0003 µM, first compound 0.1 µM
  viability, T/C: 68.8%
Second compound 0.0003 µM, first compound 0.316 µM
  viability, T/C: 66.9%
Second compound 0.0003 µM, first compound 1 µM
  viability, T/C: 73.3%
Second compound 0.0003 µM, first compound 3.16 µM
  viability, T/C: 73.4%
Second compound 0.0003 µM, first compound 10 µM
  viability, T/C: 69.6%
Second compound 0.000949 µM, first compound 0.0316 µM
  viability, T/C: 59%
Second compound 0.000949 µM, first compound 0.1 µM
  viability, T/C: 58.7%
Second compound 0.000949 µM, first compound 0.316 µM
  viability, T/C: 55.9%
Second compound 0.000949 µM, first compound 1 µM
  viability, T/C: 57.4%
Second compound 0.000949 µM, first compound 3.16 µM
  viability, T/C: 50.7%
Second compound 0.000949 µM, first compound 10 µM
  viability, T/C: 45.8%
Second compound 0.003 µM, first compound 0.0316 µM
  viability, T/C: 0.64%
Second compound 0.003 µM, first compound 0.1 µM
  viability, T/C: 0.73%
Second compound 0.003 µM, first compound 0.316 µM
  viability, T/C: 0.53%
Second compound 0.003 µM, first compound 1 µM
  viability, T/C: 0.45%
Second compound 0.003 µM, first compound 3.16 µM
  viability, T/C: 0.55%
Second compound 0.003 µM, first compound 10 µM
  viability, T/C: 1.03%

## O=C(c1cc(Cc2n[nH]c(=O)c3ccccc23)ccc1F)N1CCN(C(=O)C2CC2)CC1 + CC[C@@]1(O)C(=O)OCc2c1cc1n(c2=O)Cc2cc3c(CN(C)C)c(O)ccc3nc2-1
Second compound 0.003 µM
  IC50: 9.73 µM
Second compound 0.00949 µM
  IC50: 9.85 µM
Second compound 0.03 µM
  IC50: 0.282 µM
Second compound 0.0949 µM
  IC50: < 0.0949 µM
Second compound 0.3 µM
  IC50: < 0.0949 µM
Second compound 0.003 µM, first compound 0.0949 µM
  viability, T/C: 89%
Second compound 0.003 µM, first compound 0.3 µM
  viability, T/C: 85.6%
Second compound 0.003 µM, first compound 0.949 µM
  viability, T/C: 85.3%
Second compound 0.003 µM, first compound 3 µM
  viability, T/C: 66%
Second compound 0.003 µM, first compound 9.49 µM
  viability, T/C: 51.3%
Second compound 0.003 µM, first compound 30 µM
  viability, T/C: 45.6%
Second compound 0.00949 µM, first compound 0.0949 µM
  viability, T/C: 62.3%
Second compound 0.00949 µM, first compound 0.3 µM
  viability, T/C: 56.2%
Second compound 0.00949 µM, first compound 0.949 µM
  viability, T/C: 57.3%
Second compound 0.00949 µM, first compound 3 µM
  viability, T/C: 57.5%
Second compound 0.00949 µM, first compound 9.49 µM
  viability, T/C: 47.3%
Second compound 0.00949 µM, first compound 30 µM
  viability, T/C: 45.8%
Second compound 0.03 µM, first compound 0.0949 µM
  viability, T/C: 51.3%
Second compound 0.03 µM, first compound 0.3 µM
  viability, T/C: 50.1%
Second compound 0.03 µM, first compound 0.949 µM
  viability, T/C: 48.3%
Second compound 0.03 µM, first compound 3 µM
  viability, T/C: 48%
Second compound 0.03 µM, first compound 9.49 µM
  viability, T/C: 45.9%
Second compound 0.03 µM, first compound 30 µM
  viability, T/C: 45.8%
Second compound 0.0949 µM, first compound 0.0949 µM
  viability, T/C: 45.7%
Second compound 0.0949 µM, first compound 0.3 µM
  viability, T/C: 44%
Second compound 0.0949 µM, first compound 0.949 µM
  viability, T/C: 44.3%
Second compound 0.0949 µM, first compound 3 µM
  viability, T/C: 41.9%
Second compound 0.0949 µM, first compound 9.49 µM
  viability, T/C: 40.3%
Second compound 0.0949 µM, first compound 30 µM
  viability, T/C: 33%
Second compound 0.3 µM, first compound 0.0949 µM
  viability, T/C: 41.4%
Second compound 0.3 µM, first compound 0.3 µM
  viability, T/C: 41%
Second compound 0.3 µM, first compound 0.949 µM
  viability, T/C: 39%
Second compound 0.3 µM, first compound 3 µM
  viability, T/C: 32.6%
Second compound 0.3 µM, first compound 9.49 µM
  viability, T/C: 24.4%
Second compound 0.3 µM, first compound 30 µM
  viability, T/C: 18.5%
